Laboratory results reported in patent US4335136A, “Anti-inflammatory 4,5-diaryl-α-(polyfluoroalkyl)-1H-pyrrole-2-methanamines” (E. I. Du Pont de Nemours and Company, priority 1981, dated 1982).

What was measured:
[1] = tested on: adjuvant-induced arthritis in rats; test: Established Adjuvant-Induced Arthritis in Rats; type: in vivo, Lewis (Wistar) male rats; conditions: rat; for ED50: oral gavage once daily for 7 days (days 14-20), paw volume of uninjected left hind paw on day 21, ED50 % estimated by inspection, read-out: Adjuvant Arthritic ED 50; for Percent decrease from control mean paw volume (in parentheses after the ED50 bound): oral once daily for 7 days, presumably at the bounding dose
[2] = tested on: phenylquinone writhing in mice; test: Phenylquinone writhing test; type: in vivo, female white mice; conditions: Mus musculus, 0.5 h; fasted female mice, oral; phenylquinone i.p. 24 minutes later; observed for 10 minutes from 30 minutes after dosing; read-out: Analgesic Phenylquinone Writhing ED50
Protocol: PHENYLQUINONE WRITHING TEST
The phenylquinone writhing test, modified from Siegmund, et al., Proc. Soc. Exp. Biol. Med., 95, 729 (1957), was employed. A test compound suspended in 1% methylcellulose was given orally to fasted (17-21 hours) female white mice, 5-20 animals per double blind test. Aqueous (0.01% phenyl-p-benzoquinone) phenylquinone was injected intraperitoneally 24 minutes later using 0.20 ml per mouse. […] The effective analgesic dose for 50% of the mice (ED50) was calculated by the moving average method of Thompson, W. R., Bact. Rev., 11, 115-145 (1947).

Compound | ED50 [1] | ED50 [2] | Percent decrease from control mean paw volume (in parentheses after the ED50 bound) ([1]; 25 mg/kg) | Percent decrease from control mean paw volume (in parentheses after the ED50 bound) ([1]; 9 mg/kg)
NC(c1cc(-c2ccc(F)cc2)c(-c2ccc(Br)cc2)[nH]1)(C(F)(F)F)C(F)(F)F [Example 6] | 3.4 mg/kg | > 108 mg/kg |  | 
Cc1c(C(N)(C(F)(F)F)C(F)(F)F)[nH]c(-c2ccc(F)cc2)c1-c1ccc(F)cc1 [Example 8] | 0.77 mg/kg | > 108 mg/kg |  | 
NC(c1cc(-c2ccc(F)cc2)c(-c2ccc(F)cc2)[nH]1)C(F)(F)F (stereo not drawn) [Example 2, 4,5-Bis(4-fluorophenyl)-α-(trifluoromethyl)-1H-pyrrole-2-methanamine] | > 25 mg/kg |  | 29% | 
NC(c1cc(-c2ccc(F)cc2)c(-c2ccc(F)cc2)[nH]1)(C(F)(F)F)C(F)(F)Cl (stereo not shown) [Example 15] | 0.7 mg/kg |  |  | 
NC(c1cc(-c2ccc(Cl)cc2)c(-c2ccc(Cl)cc2)[nH]1)(C(F)(F)F)C(F)(F)F [Example 10] | 4.4 mg/kg | > 108 mg/kg |  | 
NC(c1cc(-c2ccccc2)c(-c2ccccc2)[nH]1)(C(F)(F)F)C(F)(F)F [Example 11] | 20 mg/kg | > 108 mg/kg |  | 
NC(c1cc(-c2ccc(F)cc2)c(-c2ccc(F)cc2)[nH]1)(C(F)(F)F)C(F)(F)F [Example 1, 4,5-Bis(4-fluorophenyl)-α,α-bis(trifluoromethyl)-1H-pyrrole-2-methanamine] | 0.45 mg/kg | 27 mg/kg |  | 
Cc1ccc(-c2cc(C(N)(C(F)(F)F)C(F)(F)F)[nH]c2-c2ccc(C)cc2)cc1 [Example 7] | > 9 mg/kg | > 108 mg/kg |  | 45%
NC(c1cc(-c2ccc(F)cc2)c(-c2ccc(F)cc2)n1Cc1ccccc1)(C(F)(F)F)C(F)(F)F [Example 13] | > 25 mg/kg | > 108 mg/kg | 24% | 
CNC(c1cc(-c2ccc(F)cc2)c(-c2ccc(F)cc2)n1C)(C(F)(F)F)C(F)(F)F [Example 14, 4,5-Bis(4-fluorophenyl)-N,1-dimethyl-α,α-di(trifluoromethyl)-1H-pyrrole-2-methanamine] | 1 mg/kg | > 108 mg/kg |  | 
COc1ccc(-c2cc(C(N)(C(F)(F)F)C(F)(F)F)[nH]c2-c2ccc(OC)cc2)cc1 [Example 4] | 3.3 mg/kg | 45 mg/kg |  | 
CN(C)c1ccc(-c2[nH]c(C(N)(C(F)(F)F)C(F)(F)F)cc2-c2ccc(F)cc2)cc1 [Example 9] | 4.9 mg/kg | > 108 mg/kg |  | 
CNC(c1cc(-c2ccc(F)cc2)c(-c2ccc(F)cc2)[nH]1)(C(F)(F)F)C(F)(F)F [Example 5, 4,5-Bis(4-fluorophenyl)-N-methyl-α,α-di(trifluoromethyl)-1H-pyrrole-2-methanamine] | 0.8 mg/kg | > 108 mg/kg |  | 
NC(c1cc(-c2ccc(F)cc2)c(-c2cccnc2)[nH]1)(C(F)(F)F)C(F)(F)F [Example 12] | 12.5 mg/kg | > 108 mg/kg |  | 
Cn1c(C(N)(C(F)(F)F)C(F)(F)F)cc(-c2ccc(F)cc2)c1-c1ccc(F)cc1 [Example 3] | 2.6 mg/kg | > 108 mg/kg |  | 
